In patent US20240131167A1, “EGFR Degraders and Associated Methods of Use” (BeiGene Switzerland GmbH, priority 2021, published 2024):

Experiments:
[1] = tested on: EGFR (Del19/T790M/C797S) in H1975-clone #28 cells; experiment: Cell degradation of EGFR, HTRF assay, H1975-clone #28 cells; format: cell-based; settings: H1975-clone #28 (Del19/T790M/C797S, homozygous), 16 h treatment; for DC50: HTRF; for Dmax H1975 #28: maximum percentage of inhibition (degradation)
Method: (§1) BaF3-LTC (L858R/T790M/C797S) cells are treated with compounds diluted in 0.2% DMSO cell culture medium and incubate for 16 h, 37° C., 5% CO2. H1975-#28 cells are treated with compounds diluted in 0.2% DMSO cell culture medium on day 2, incubate for 16 h, 37° C., 5% CO2, the final concentration of compounds in all assay is start with 10 uM, 4-fold dilution, total 8 doses were included.
(§2) After 16 h treatment, add HTRF lysis buffer to each well; seal the plate and incubate 1 hour at room temperature on a plate shaker. Once the cells are lysed, 16 μL of cell lysate are transferred to a PE 384-well HTRF detection plate: 4 μL of pre-mixed HTRF antibodies are added to each well; Cover the plate with a plate sealer, spin 1000 rpm for 1 min, Incubate overnight at room temperature; Read on BMG PheraStar with HTRF protocol (337 nm-665 nm-620 nm).
(§3) The inhibition (degradation) percentage of the compound was calculated by the following equation: […]
(§4) The IC50 (DC50) value of a compound can be obtained by fitting the following equation
(§5) Y=Bottom+(TOP−Bottom)/(1+((IC50/X)^hillslope))
(§6) Wherein, X and Y are known values, and IC50. Hillslope, Top and Bottom are the parameters obtained by fitting with software. Y is the inhibition percentage (calculated from the equation), X is the concentration of the compound; IC50 is the concentration of the compound when the 50% inhibition is reached. The smaller the IC50 value is, the stronger the inhibitory ability of the compound is. Vice versa, the higher the IC50 value is, the weaker the ability the inhibitory ability of the compound is; Hillslope represents the slope of the fitted curve, generally around 1*; Bottom represents the minimum value of the curve obtained by data fitting, which is generally 0%±20%. Top represents the maximum value of the curve obtained by data fitting, which is generally 100%±20%. The experimental data were fitted by calculating and analyzing with Dotmatics data analysis software.

[2] = molecular target: T1, EGFR (L858R/T790M/C797S) in BaF3-LTC cells (Homo sapiens, UniProt P00533, C797S/L858R/T790M); experiment: Cell degradation of EGFR, HTRF assay, BaF3-LTC cells; format: cell-based; settings: 16 h treatment; for DC50: HTRF; for Dmax: maximum percentage of inhibition (degradation)
T1 construct: expressed in transfected cells; host or cells: BaF3-LTC
T1 sequence (P00533 25-1210 T790M/C797S/L858R): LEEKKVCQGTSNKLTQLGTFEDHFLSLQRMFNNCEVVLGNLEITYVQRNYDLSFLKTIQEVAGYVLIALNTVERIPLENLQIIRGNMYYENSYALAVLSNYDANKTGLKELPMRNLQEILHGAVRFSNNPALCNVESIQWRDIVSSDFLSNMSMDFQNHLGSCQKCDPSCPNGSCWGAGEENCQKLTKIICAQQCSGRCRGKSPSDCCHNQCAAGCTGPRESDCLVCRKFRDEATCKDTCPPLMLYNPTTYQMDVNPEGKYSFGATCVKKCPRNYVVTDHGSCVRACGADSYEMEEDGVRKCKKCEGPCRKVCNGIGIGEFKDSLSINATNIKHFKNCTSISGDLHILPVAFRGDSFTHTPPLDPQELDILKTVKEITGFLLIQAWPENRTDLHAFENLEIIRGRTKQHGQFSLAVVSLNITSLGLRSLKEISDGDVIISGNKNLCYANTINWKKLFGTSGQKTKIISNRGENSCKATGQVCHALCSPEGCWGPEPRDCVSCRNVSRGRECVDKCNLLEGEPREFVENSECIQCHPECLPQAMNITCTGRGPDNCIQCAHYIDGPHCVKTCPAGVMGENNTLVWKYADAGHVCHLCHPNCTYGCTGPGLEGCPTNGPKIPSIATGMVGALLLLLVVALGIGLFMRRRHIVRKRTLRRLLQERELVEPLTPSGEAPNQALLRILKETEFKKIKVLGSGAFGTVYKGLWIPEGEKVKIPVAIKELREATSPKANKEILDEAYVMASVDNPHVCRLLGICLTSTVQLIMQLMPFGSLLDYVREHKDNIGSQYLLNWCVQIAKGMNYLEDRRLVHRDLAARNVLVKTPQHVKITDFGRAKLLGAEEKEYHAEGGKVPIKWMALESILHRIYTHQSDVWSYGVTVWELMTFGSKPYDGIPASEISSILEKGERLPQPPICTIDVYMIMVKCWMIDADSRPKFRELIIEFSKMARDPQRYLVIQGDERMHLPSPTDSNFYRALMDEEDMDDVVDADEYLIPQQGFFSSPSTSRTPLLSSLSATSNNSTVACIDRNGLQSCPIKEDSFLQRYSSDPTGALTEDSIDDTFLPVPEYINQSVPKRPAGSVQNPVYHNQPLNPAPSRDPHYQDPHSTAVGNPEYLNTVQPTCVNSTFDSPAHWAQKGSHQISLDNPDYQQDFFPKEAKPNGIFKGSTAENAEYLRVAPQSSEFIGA
Method: as §1, §2, §3, §4, §5, §6

CCc1cc(Nc2ncc(Br)c(Nc3ccc4nc(C)ccc4c3P3(=O)CCCC3)n2)c(OC)cc1N1CCC(N2CCN(CCc3cccc4c3n(C)c(=O)n4C3CCC(=O)NC3=O)CC2)CC1 (stereo not shown) [Example 68, 3-(4-(2-(4-(1-(4-((5-bromo-4-((2-methyl-5-(1-oxidophospholan-1-yl)quinolin-6-yl)amino)pyrimidin-2-yl)amino)-2-ethyl-5-methoxyphenyl)piperidin-4-yl)piperazin-1-yl)ethyl)-3-methyl-2-oxo-2,3-dihydro-1H-benzo[d]imidazol-1-yl)piperidine-2,6-dione]
DC50 [1]: 1.34 nM
Dmax H1975 #28 [1]: 85.88%
DC50 [2]: 3.46 nM
Dmax [2]: 90.8%

CCc1cc(Nc2ncc(Br)c(Nc3ccc4nc(C)ccc4c3P3(=O)CCCC3)n2)c(OC)cc1N1CCC(N2CCN(CCc3ccc4c(c3)oc(=O)n4C3CCC(=O)NC3=O)CC2)CC1 (stereo not shown) [Example 71, 3-(6-(2-(4-(1-(4-((5-bromo-4-((2-methyl-5-(1-oxidophospholan-1-yl)quinolin-6-yl)amino)pyrimidin-2-yl)amino)-2-ethyl-5-methoxyphenyl)piperidin-4-yl)piperazin-1-yl)ethyl)-2-oxobenzo[d]oxazol-3(2H)-yl)piperidine-2,6-dione]
DC50 [1]: 1.38 nM
Dmax H1975 #28 [1]: 72.97%
DC50 [2]: 2.51 nM
Dmax [2]: 88.6%

CCc1cc(Nc2ncc(Br)c(Nc3ccc4nc(C)ccc4c3P3(=O)CCCC3)n2)c(OC)cc1N1CCC(N2CCN(CCc3cccc4c3C(C)(C)C(=O)N4C3CCC(=O)NC3=O)CC2)CC1 (stereo not shown) [Example 73, 3-(4-(2-(4-(1-(4-((5-bromo-4-((2-methyl-5-(1-oxidophospholan-1-yl)quinolin-6-yl)amino)pyrimidin-2-yl)amino)-2-ethyl-5-methoxyphenyl)piperidin-4-yl)piperazin-1-yl)ethyl)-3,3-dimethyl-2-oxoindolin-1-yl)piperidine-2,6-dione]
DC50 [1]: 0.66 nM
Dmax H1975 #28 [1]: 78.13%
DC50 [2]: 7.52 nM
Dmax [2]: 89.9%

CCc1cc(Nc2ncc(Br)c(Nc3ccccc3P3(=O)CCCC3)n2)c(OC)cc1N1CCC(N2CCN(C(=O)[C@@H]3CCN(c4cc(F)c(C5CCC(=O)NC5=O)c(F)c4)C3)CC2)CC1 (stereo partly drawn) [Example 111, 3-(4-((R)-3-(4-(1-(4-((5-bromo-4-((2-(1-oxidophospholan-1-yl)phenyl)amino)pyrimidin-2-yl)amino)-2-ethyl-5-methoxyphenyl)piperidin-4-yl)piperazine-1-carbonyl)pyrrolidin-1-yl)-2,6-difluorophenyl)piperidine-2,6-dione]
DC50 [1]: 4.31 nM
Dmax H1975 #28 [1]: 87.16%
DC50 [2]: 26.8 nM
Dmax [2]: 90.3%

CCc1cc(Nc2ncc(Br)c(Nc3ccc4nc(C)ccc4c3P3(=O)CC=CC3)n2)c(OC)cc1N1CCC(N2CCN(CCc3ccc4c(c3)oc(=O)n4C3CCC(=O)NC3=O)CC2)CC1 (stereo not shown) [Example 145, 3-(6-(2-(4-(1-(4-((5-bromo-4-((2-methyl-5-(1-oxido-2,5-dihydrophosphol-1-yl)quinolin-6-yl)amino)pyrimidin-2-yl)amino)-2-ethyl-5-methoxyphenyl)piperidin-4-yl)piperazin-1-yl)ethyl)-2-oxobenzo[d]oxazol-3(2H)-yl)piperidine-2,6-dione]
DC50 [1]: 0.77 nM
Dmax H1975 #28 [1]: 75.97%
DC50 [2]: 1.82 nM
Dmax [2]: 91.8%

CCc1cc(Nc2ncc(Br)c(Nc3ccccc3P3(=O)CCCC3)n2)c(OC)cc1N1CCC(N2CCN(CCc3cc(F)c(C4CCC(=O)NC4=O)c(F)c3)CC2)CC1 (stereo not shown) [Example 147, 3-(4-(2-(4-(1-(4-((5-bromo-4-((2-(1-oxidophospholan-1-yl)phenyl)amino)pyrimidin-2-yl)amino)-2-ethyl-5-methoxyphenyl)piperidin-4-yl)piperazin-1-yl)ethyl)-2,6-difluorophenyl)piperidine-2,6-dione]
DC50 [1]: 3.15 nM
Dmax H1975 #28 [1]: 82.21%
DC50 [2]: 75.1 nM
Dmax [2]: 86.6%

CCc1cc(Nc2ncc(Br)c(Nc3ccccc3P3(=O)CCCC3)n2)c(OC)cc1N1CCC(N2CCN(C(=O)C3CN(c4cc(F)c(C5CCC(=O)NC5=O)c(F)c4)C3)CC2)CC1 (stereo not shown) [Example 148, 3-(4-(3-(4-(1-(4-((5-bromo-4-((2-(1-oxidophospholan-1-yl)phenyl)amino)pyrimidin-2-yl)amino)-2-ethyl-5-methoxyphenyl)piperidin-4-yl)piperazine-1-carbonyl)azetidin-1-yl)-2,6-difluorophenyl)piperidine-2,6-dione]
DC50 [1]: 2.99 nM
Dmax H1975 #28 [1]: 78.19%
DC50 [2]: 19.8 nM
Dmax [2]: 90.2%
